System: plants
Assay: Test D pre-emergence, other plants of Tables D1 and D3
Format: in vivo
Conditions: preemergent, 20 DAA
Procedure: A formulation containing 50 g/L of the test chemical was prepared by dissolving the active ingredient in a mixture of organic solvents and emulsifier, details of which are provided in the table. This formulation was then mixed with a small, variable amount of acetone to aid dissolution, before addition of a 0.2% v/v aqueous solution of an adjuvant, as the aqueous diluent, to form an aqueous spray solution which contains a predetermined concentration of the active ingredient.
This aqueous spray solution was then sprayed onto plants including maize and wheat that had been seed treated with a herbicide safener, after one day's cultivation (for pre-emergence) or after about 12 days' cultivation (for post-emergence). The plants were grown from seeds sown in standard soil, placed in a glasshouse under controlled conditions (at 24/18° C. or 20/16° C., day/night; 16 h light; 65% humidity). After spray application the plants were then grown in a glasshouse under the same conditions and watered twice daily. After 15 d for post-emergence and 20 DAA for pre-emergence the test was evaluated (100=total damage to plant; 0=no damage to plant).

Q: What does the source list for CN1CC(c2cc(C(F)(F)F)n(C)n2)C(C(=O)Nc2cccc(F)c2F)C1=O (racemic) [Compound 3]?
A: damage to plant (100=total damage to plant; 0=no damage to plant), ABUTH (rate 15): 0; damage to plant (100=total damage to plant; 0=no damage to plant), ABUTH (rate 30): 0; damage to plant (100=total damage to plant; 0=no damage to plant), ABUTH (rate 60): 0; damage to plant (100=total damage to plant; 0=no damage to plant), ABUTH (rate 130): 0; damage to plant (100=total damage to plant; 0=no damage to plant), ABUTH (rate 250): 0; damage to plant (100=total damage to plant; 0=no damage to plant), ABUTH (rate 500): 0; damage to plant (100=total damage to plant; 0=no damage to plant), BIDPI (rate 15): 0; damage to plant (100=total damage to plant; 0=no damage to plant), BIDPI (rate 30): 0; damage to plant (100=total damage to plant; 0=no damage to plant), BIDPI (rate 60): 0; damage to plant (100=total damage to plant; 0=no damage to plant), BIDPI (rate 130): 0; damage to plant (100=total damage to plant; 0=no damage to plant), BIDPI (rate 250): 0; damage to plant (100=total damage to plant; 0=no damage to plant), BIDPI (rate 500): 0; damage to plant (100=total damage to plant; 0=no damage to plant), BRAPL (rate 15): 20; damage to plant (100=total damage to plant; 0=no damage to plant), BRAPL (rate 30): 50; damage to plant (100=total damage to plant; 0=no damage to plant), BRAPL (rate 60): 90; damage to plant (100=total damage to plant; 0=no damage to plant), BRAPL (rate 130): 100; damage to plant (100=total damage to plant; 0=no damage to plant), BRAPL (rate 250): 100; damage to plant (100=total damage to plant; 0=no damage to plant), BRAPL (rate 500): 100; damage to plant (100=total damage to plant; 0=no damage to plant), CYPES (rate 15): 0; damage to plant (100=total damage to plant; 0=no damage to plant), CYPES (rate 30): 0; damage to plant (100=total damage to plant; 0=no damage to plant), CYPES (rate 60): 0; damage to plant (100=total damage to plant; 0=no damage to plant), CYPES (rate 130): 0; damage to plant (100=total damage to plant; 0=no damage to plant), CYPES (rate 250): 0; damage to plant (100=total damage to plant; 0=no damage to plant), CYPES (rate 500): 10; damage to plant (100=total damage to plant; 0=no damage to plant), DIGSA (rate 15): 20; damage to plant (100=total damage to plant; 0=no damage to plant), DIGSA (rate 30): 90; damage to plant (100=total damage to plant; 0=no damage to plant), DIGSA (rate 60): 90; damage to plant (100=total damage to plant; 0=no damage to plant), DIGSA (rate 130): 100; damage to plant (100=total damage to plant; 0=no damage to plant), DIGSA (rate 250): 100; damage to plant (100=total damage to plant; 0=no damage to plant), DIGSA (rate 500): 100; damage to plant (100=total damage to plant; 0=no damage to plant), ECHCG (rate 15): 20; damage to plant (100=total damage to plant; 0=no damage to plant), ECHCG (rate 30): 90; damage to plant (100=total damage to plant; 0=no damage to plant), ECHCG (rate 60): 90; damage to plant (100=total damage to plant; 0=no damage to plant), ECHCG (rate 130): 90; damage to plant (100=total damage to plant; 0=no damage to plant), ECHCG (rate 250): 100; damage to plant (100=total damage to plant; 0=no damage to plant), ECHCG (rate 500): 100; damage to plant (100=total damage to plant; 0=no damage to plant), ELEIN (rate 15): 0; damage to plant (100=total damage to plant; 0=no damage to plant), ELEIN (rate 30): 0; damage to plant (100=total damage to plant; 0=no damage to plant), ELEIN (rate 60): 0; damage to plant (100=total damage to plant; 0=no damage to plant), ELEIN (rate 130): 0; damage to plant (100=total damage to plant; 0=no damage to plant), ELEIN (rate 250): 0; damage to plant (100=total damage to plant; 0=no damage to plant), ELEIN (rate 500): 0; damage to plant (100=total damage to plant; 0=no damage to plant), EPHHL (rate 15): 0; damage to plant (100=total damage to plant; 0=no damage to plant), EPHHL (rate 30): 0; damage to plant (100=total damage to plant; 0=no damage to plant), EPHHL (rate 60): 0; damage to plant (100=total damage to plant; 0=no damage to plant), EPHHL (rate 130): 0; damage to plant (100=total damage to plant; 0=no damage to plant), EPHHL (rate 250): 10; damage to plant (100=total damage to plant; 0=no damage to plant), EPHHL (rate 500): 10; damage to plant (100=total damage to plant; 0=no damage to plant), GLXMA (rate 15): 0; damage to plant (100=total damage to plant; 0=no damage to plant), GLXMA (rate 30): 0; damage to plant (100=total damage to plant; 0=no damage to plant), GLXMA (rate 60): 0; damage to plant (100=total damage to plant; 0=no damage to plant), GLXMA (rate 130): 0; damage to plant (100=total damage to plant; 0=no damage to plant), GLXMA (rate 250): 0; damage to plant (100=total damage to plant; 0=no damage to plant), GLXMA (rate 500): 10; damage to plant (100=total damage to plant; 0=no damage to plant), IPOHE (rate 15): 0; damage to plant (100=total damage to plant; 0=no damage to plant), IPOHE (rate 30): 0; damage to plant (100=total damage to plant; 0=no damage to plant), IPOHE (rate 60): 0; damage to plant (100=total damage to plant; 0=no damage to plant), IPOHE (rate 130): 0; damage to plant (100=total damage to plant; 0=no damage to plant), IPOHE (rate 250): 0; damage to plant (100=total damage to plant; 0=no damage to plant), IPOHE (rate 500): 0; damage to plant (100=total damage to plant; 0=no damage to plant), ORYSA (rate 15): 0; damage to plant (100=total damage to plant; 0=no damage to plant), ORYSA (rate 30): 0; damage to plant (100=total damage to plant; 0=no damage to plant), ORYSA (rate 60): 0; damage to plant (100=total damage to plant; 0=no damage to plant), ORYSA (rate 130): 0; damage to plant (100=total damage to plant; 0=no damage to plant), ORYSA (rate 250): 0; damage to plant (100=total damage to plant; 0=no damage to plant), ORYSA (rate 500): 0; damage to plant (100=total damage to plant; 0=no damage to plant), PANMI (rate 15): 0; damage to plant (100=total damage to plant; 0=no damage to plant), PANMI (rate 30): 0; damage to plant (100=total damage to plant; 0=no damage to plant), PANMI (rate 60): 0; damage to plant (100=total damage to plant; 0=no damage to plant), PANMI (rate 130): 0; damage to plant (100=total damage to plant; 0=no damage to plant), PANMI (rate 250): 0; damage to plant (100=total damage to plant; 0=no damage to plant), PANMI (rate 500): 0; damage to plant (100=total damage to plant; 0=no damage to plant), SETFA (rate 15): 0; damage to plant (100=total damage to plant; 0=no damage to plant), SETFA (rate 30): 30; damage to plant (100=total damage to plant; 0=no damage to plant), SETFA (rate 60): 80; damage to plant (100=total damage to plant; 0=no damage to plant), SETFA (rate 130): 90; damage to plant (100=total damage to plant; 0=no damage to plant), SETFA (rate 250): 90; damage to plant (100=total damage to plant; 0=no damage to plant), SETFA (rate 500): 90; damage to plant (100=total damage to plant; 0=no damage to plant), SIDSP (rate 15): 0; damage to plant (100=total damage to plant; 0=no damage to plant), SIDSP (rate 30): 0; damage to plant (100=total damage to plant; 0=no damage to plant), SIDSP (rate 130): 0; damage to plant (100=total damage to plant; 0=no damage to plant), SIDSP (rate 250): 60; damage to plant (100=total damage to plant; 0=no damage to plant), SIDSP (rate 500): 60; damage to plant (100=total damage to plant; 0=no damage to plant), SORVU (rate 15): 0; damage to plant (100=total damage to plant; 0=no damage to plant), SORVU (rate 30): 0; damage to plant (100=total damage to plant; 0=no damage to plant), SORVU (rate 60): 0; damage to plant (100=total damage to plant; 0=no damage to plant), SORVU (rate 130): 0; damage to plant (100=total damage to plant; 0=no damage to plant), SORVU (rate 250): 0; damage to plant (100=total damage to plant; 0=no damage to plant), SORVU (rate 500): 0
